Results published in patent publication US20220256848A1, “NEO-BAVAISOFLAVONE AND COMPOSITIONS THEREOF AND THEIR USE AS PESTICIDES” (priority 2019, published 2022).
Marks after values point to notes of the source that are not given here.

How the values were obtained:
Puccinia sorghi [1] = format: cell-based
Phytophthora infestans = format: cell-based; conditions: activity grade x repeats /12 x100
Botrytis cinerea = assay: In-vitro screening against Botrytis cinerea; format: cell-based; conditions: grade x repeats x days of activity /168 x100
Description: (§1) The bioactivity values are in % and reflect the potential of eradicating the target pests.
c. Botrytis cinerea—activity grade (1/2/3) X repeats# X days of activity/168 (maximal value 3×4×14=168)*100

Rhizoctonia solani = assay: Microplate hyphae growth assay against Rhizoctonia solani; format: cell-based; conditions: grade x repeats x days of activity /252 x100
Experimental: Summary: Diluted purified neo-bavaisoflavone was added to microplate wells and mixed with 50 ul of hyphae suspension and growth of the fungus, starting from blended hyphae, was monitored by plate reader and visual inspection.
2) Add 50 ul of hyphae suspension to the wells of the microplate using a multi-pipette, mix the spore suspension vigorously by hand and decant amount needed for one plate (5 ml) to keep the hyphae well suspended
(§2) 4) Shake the plate for 10 min at 2000 RPM to mix the neo-bavaisoflavone with the hyphae suspension
(§3) 7) Read the plate using the plate reader
(§4) 9) Insert collected plates to a plastic box with cloth cover and put the box in the incubator at 27° C.
1) Screen plate at 3 more dates: 3d, 7d, 14d and 21d following the assay start
2) Calculate the difference of absorbance between each screen and the read at zero time
(§5) 3) Calculate the percentage of growth inhibition of each well at each time point. Use the results of the DMSO treatment of the control plate as 100% growth
as §1
(§6) b. Pseudomonas syringae, Rhizoctonia solani, Fusarium oxysporum, Pythium aphanidermatum—activity grade (1/2/3) X repeats# X days of activity/252 (maximal value 3×4×21=252)*100

Pythium aphanidermatum = assay: Microplate zoospore growth assay against Pythium aphanidermatum; format: cell-based; conditions: grade x repeats x days of activity /252 x100
Experimental: Summary: Diluted purified neo-bavaisoflavone was added to microplate wells and mixed with 50 ul of zoospores in PDBC suspension and the growth of the fungus, starting from zoospores, was monitored by plate reader and visual inspection
2) Add 50 ul of zoospore suspension inoculum to the wells of the microplate using a multi-pipette. Mix the spore suspension vigorously by hand and decant amount needed for one plate (5 ml) to keep the zoospores well suspended
as §2, §3, §4
1) Read out the plate at 3 more dates: 3d, 7d, 14d and 21d following the assay start
2) Calculate the difference of absorbance between each readout and the readout at zero time
as §5
4) Prepare a table of the results of hits that were repeated in all 4 repeats. Set a column for each time point.
as §1
b. […]

Fusarium oxysporum = assay: In-vitro screening against Fusarium oxysporum; format: cell-based; conditions: grade x repeats x days of activity /252 x100
Description: as §1, §6

Sclerotinia sclerotiorum = assay: Microplate hyphae growth assay against Sclerotinia sclerotiorum; format: cell-based
Experimental: Summary: Diluted purified neo-bavaisoflavone was added to microplate wells and mixed with 50 ul of hyphae suspension and growth of the fungus starting from blended hyphae was monitored by visual inspection.
Background: Sclerotinia sclerotiorum is a fungus of belonging to the Ascomycetes and it is a soil borne pathogen. It is difficult to produce large amounts of spores of Sclerotinia sclerotiorum, that led to decision to use hyphae in this screening rather than spores for inoculation.
2) Add 50 ul of hyphae suspension to the wells of the microplate, mix the spore suspension vigorously by hand and decant amount needed for one plate (5 ml) to keep the hyphae well suspended
as §2
7) Insert microplates into a plastic box and put the box in the incubator at 21° C.
1) Screen plate at […]: 4, 7, 14 and 21 days after inoculation
2) Use a lamp for visual assessment of compounds effect on fungal growth overtime
4) Compare the hyphal growth of each well to the hyphal growth of the control plate wells (Wells containing active fungicides or 0.5% DMSO solution)
5) Write the results on a special form: clear well=3 (no growth of hyphae), normal hyphal structure=1 (normal growth), inconclusive=2 (solid structure of unexpected type, or partial cover of the area) […]

[2] = test system: Pectobacterium carotovorum; assay: In-vitro screening against Pectobacterium carotovorum; format: cell-based; conditions: grade x repeats x days of activity /84 x100
Description: as §1
d. Pectobacterium carotovorum—activity grade (1/2/3) X repeats# X days of activity/84 (maximal value 3×4×7=[…])*100

Pseudomonas syringae = assay: Microplate bacterial growth assay against Pseudomonas syringae; format: cell-based; conditions: grade x repeats x days of activity /252 x100
Experimental: Summary: Diluted purified neo-bavaisoflavone was added to microplate wells and mixed with […] of frozen bacteria suspension and growth of the bacteria was monitored by visual inspection.
Background: Pseudomonas is a rod-shaped Gram-negative bacterium. Frozen bacteria stock of 60% glycerol was used as an inoculum for the screening experiment.
1) Take a plate with Neo-bavaisoflavone (10 ul) from the −20° C. freezer and thaw it on the bench for at least 20 min
2) Add 80 ul of bacteria suspension with growth medium to each well of the microplate using a multi-pipette
4) Shake the plate for 10 min at 2000 RPM to mix the Neo-bavaisoflavone with the bacteria suspension
6) Insert the plates to a plastic box with cover and put the box in the incubator at 28° C.
1) Screen the microplate at 5 dates: 3, 5, 7, 14 and 21 days after inoculation
2) Use a lamp to visually evaluate the bacterial growth
3) Prepare plates for screening: shake plate at 2000 RPM for 2 min to suspend the bacteria and then centrifuge plate at 1000 RCF for a few seconds
5) Compare the transparency of each well to the transparency of the control wells (wells containing control bactericide or 0.5% DMSO solution)
Write the results on a special form: clear=3 (no growth of bacteria), turbid=1(normal bacterial growth), inconclusive=2 (very low turbidity compared to growth in 0.5% DMSO solution) […]

Mizus Persicae = assay: In-vitro screening matrix, Mizus Persicae
Description: as §1

Spodoptera litoralis = assay: In-vitro screening matrix, Spodoptera litoralis
Description: as §1

Puccinia sorghi [3] = assay: Puccinia infection of corn seedlings test (growth room); format: in vivo; conditions: corn plants, five independent growth room experiments
Description: FIGS. 1-5 show effect of neo-bavaisoflavone (NBI) on corn leaf infection by Puccinia sorghi in five independent experiments, determined as leaf % covered by the fungus. *—p-value <0.05, **—p-value is <0.01, *** —p-value is <0.001. Signum—A reference fungicide containing 26.7% w/w boscalid and 6.7% w/w pyraclostrobin (BASF®). Fl, Formulation 1; F2, Formulation 2—see Example 5. ppm—parts per million.
In order to assist the compound dissolution to final working concentration and its spread over the sprayed surface first dry weighed Neo-bavaisoflavone was dissolved in dimethyl-sulfoxide solvent with 1:9 ratio and then brought up to the final volume used for the validation with double distilled water. Before spraying, non-ionic detergent tween 20 was added to final concentration of 0.05%.
In order to assist the compound dissolution to final working concentration and its spread over the sprayed surface first dry weighed Neo-bavaisoflavone was dissolved in absolute ethanol with 1:8 ratio, sonicated for 5 mins and then another part of non-ionic detergent tween 20 was added for formulation finalization. Before spraying, additional amount of 0.05% tween 20 was added (disregarding amount of tween 20 added before).
Protocol name: Puccinia infection of corn seedlings test
General description: inoculation on corn, collection, preparation of spore suspension and material activity study, of Puccinia sorghi.
• Use 8 days old seedlings prepared as explained above • Prepare treatment for spraying—about 1 ml for each plant • Add Tween 20 up to 0.05% to the treatments • Spray treatment on to the leaves till full saturation (use a spray bottle) and let dry in the growth room • Repeat spray on the second day and let dry • On the second day (after about 4 hours from the treatment spray) inoculate plants using the Puccinia spore suspension • Use spraying bottle to spray about 1 ml (till full saturation) of the spore suspension on to the leaves of 9 days old corn seedlings • Put the pots with the inoculated seedlings in a dark moist chamber with heated water at the bottom. […]

Puccinia triticina = Puccinia triticina infected wheat, growth room under controlled temperature; format: in vivo; conditions: 200 ppm
Description: Mean of 3 independent replicates is presented. ** means that p-value is <0.01. Formulation 1 see “Formulation preparation for in-planta validation” below.
We conducted 3 independent experiments in greenhouse where we estimated neo-bavaisoflavone's (NBI) potential to prevent and control Puccinia triticina in wheat plants (FIG. 6). Each bar in FIG. 6 represents average of four replicates per treatment. Neo-bavaisoflavone controlled the leaf rust with the following efficacies: between 30% to 50% at 200 ppm and between 30% to 40% at 400 ppm. One additional experiment was conducted under controlled temperature in growth room conditions (FIG. 7) where neo-bavaisoflavone controlled the wheat leaf rust with the efficacy up to 40% at 200 ppm.

[4] = test system: Puccinia stritiformis (yellow rust); assay: Field validation in wheat, yellow rust leaf infection intensity (curative); format: in vivo; conditions: wheat field experiments
[5] = test system: Puccinia stritiformis (yellow rust); assay: Uredospores of yellow rust in pustules on field-treated wheat leaves (experiment 108); format: in vivo
[6] = Day 0 after field treatment, ±SE, experiment 108
[7] = Day 7 after field treatment, only one case, no replicates

SMILES: CC(C)=CCc1cc(-c2coc3cc(O)ccc3c2=O)ccc1O [Neo-bavaisoflavone]
- Relative Activity value (%) (Puccinia sorghi [1]): 75%
- Relative Activity value (%) (Phytophthora infestans): 0%
- Relative Activity value (%) (Botrytis cinerea): 0%
- Relative Activity value (%) (Rhizoctonia solani): 75%
- Relative Activity value (%) (Pythium aphanidermatum): 75%
- Relative Activity value (%) (Fusarium oxysporum): 0%
- Relative Activity value (%) (Sclerotinia sclerotiorum): 17%
- Relative Activity value (%) [2]: 0%
- Relative Activity value (%) (Pseudomonas syringae): 100%
- Relative Activity value (%) (Mizus Persicae): 0%
- Relative Activity value (%) (Spodoptera litoralis): 0%
- average efficacy in preventing and controlling Puccinia sorghi (Puccinia sorghi [3]; 200 ppm): 87.39%
- average efficacy in preventing and controlling Puccinia sorghi (Puccinia sorghi [3]; 400 ppm): 91.94%
- average efficacy in preventing and controlling Puccinia sorghi (Puccinia sorghi [3]; 800 ppm): 94.07%
- efficacy of wheat leaf rust control (Puccinia triticina): up to 40%
- relative leaf area covered by the fungi [4]: significantly reduced
- Collapsed spores (Percent) [5, 6]: 36.8 ± 13.03%
- Number of collapsed spores (No./pustule) [5, 6]: 4.8 ± 2.03 No./pustule
- Number of uredospores/pustule [5, 6]: 14.8 ± 3.37 No.
- Collapsed spores (Percent) [5, 7]: 1.9%
- Number of collapsed spores (No./pustule) [5, 7]: 0.8 No./pustule
- Number of uredospores/pustule [5, 7]: 6.5* No.
